Results published in article PMC11289455 (Scientific Reports, 2024).
Where two headings read alike, the source gives them in different places.

Columns and labels:
[1] = target: T1, A2A (adenosine 2A receptor) (Homo sapiens, UniProt P29274); assay: SafetyScreen44: A2A; type: binding
T1 construct: purchased Eurofins Cerep SafetyScreen44

[2] = target: T2, α1A (alpha-1A adrenergic receptor) (Homo sapiens, UniProt P35348); assay: SafetyScreen44: α1A; type: binding
T2 construct: purchased Eurofins Cerep SafetyScreen44
T2 sequence (P35348 1-466): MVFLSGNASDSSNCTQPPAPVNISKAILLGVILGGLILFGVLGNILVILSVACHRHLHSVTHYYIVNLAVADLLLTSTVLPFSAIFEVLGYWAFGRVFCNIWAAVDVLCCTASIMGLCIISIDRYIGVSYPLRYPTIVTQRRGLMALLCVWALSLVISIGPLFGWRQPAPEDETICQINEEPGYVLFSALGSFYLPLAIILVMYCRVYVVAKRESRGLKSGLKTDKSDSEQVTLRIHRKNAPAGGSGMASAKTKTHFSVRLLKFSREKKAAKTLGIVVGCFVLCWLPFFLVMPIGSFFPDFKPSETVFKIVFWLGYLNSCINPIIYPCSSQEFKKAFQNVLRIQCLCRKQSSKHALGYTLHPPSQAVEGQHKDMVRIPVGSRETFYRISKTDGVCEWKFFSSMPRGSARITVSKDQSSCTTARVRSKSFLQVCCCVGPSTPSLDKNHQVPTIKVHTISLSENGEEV

[3] = target: T3, CCK1 (CCKA) (cholecystokinin 1 receptor) (Homo sapiens, UniProt P32238); assay: SafetyScreen44: CCK1 (CCKA); type: binding
T3 construct: purchased Eurofins Cerep SafetyScreen44
T3 sequence (P32238 1-428): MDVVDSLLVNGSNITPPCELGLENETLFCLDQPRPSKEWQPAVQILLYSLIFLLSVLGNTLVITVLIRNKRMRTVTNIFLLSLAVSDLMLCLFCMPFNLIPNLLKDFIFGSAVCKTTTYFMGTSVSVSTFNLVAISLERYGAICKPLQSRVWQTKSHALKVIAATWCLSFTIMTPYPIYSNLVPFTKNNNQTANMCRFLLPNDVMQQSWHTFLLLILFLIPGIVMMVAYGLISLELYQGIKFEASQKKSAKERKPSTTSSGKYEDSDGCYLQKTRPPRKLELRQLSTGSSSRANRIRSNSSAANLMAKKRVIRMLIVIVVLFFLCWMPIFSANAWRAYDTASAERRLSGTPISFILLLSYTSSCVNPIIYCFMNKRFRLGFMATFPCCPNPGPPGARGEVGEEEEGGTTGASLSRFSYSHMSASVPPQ

[4] = target: T4, ETA (endothelin receptor subtype A) (Homo sapiens, UniProt P25101); assay: SafetyScreen44: ETA; type: binding
T4 construct: purchased Eurofins Cerep SafetyScreen44
T4 sequence (P25101 21-427): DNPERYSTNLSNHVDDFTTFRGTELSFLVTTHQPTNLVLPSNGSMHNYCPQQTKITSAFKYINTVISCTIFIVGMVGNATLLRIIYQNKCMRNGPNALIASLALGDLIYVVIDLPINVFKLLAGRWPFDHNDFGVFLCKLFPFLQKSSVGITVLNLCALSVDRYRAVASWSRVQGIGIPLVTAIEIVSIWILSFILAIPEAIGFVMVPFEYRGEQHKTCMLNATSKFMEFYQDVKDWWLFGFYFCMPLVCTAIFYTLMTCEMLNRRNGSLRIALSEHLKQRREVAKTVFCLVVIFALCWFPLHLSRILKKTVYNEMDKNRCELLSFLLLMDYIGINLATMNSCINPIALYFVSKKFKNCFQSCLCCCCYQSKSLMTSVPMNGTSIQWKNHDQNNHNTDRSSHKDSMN

[5] = target: T5, M2 (muscarinic acetylcholine receptor M2) (Homo sapiens, UniProt P08172); assay: SafetyScreen44: M2; type: binding
T5 construct: purchased Eurofins Cerep SafetyScreen44
T5 sequence (P08172 1-466): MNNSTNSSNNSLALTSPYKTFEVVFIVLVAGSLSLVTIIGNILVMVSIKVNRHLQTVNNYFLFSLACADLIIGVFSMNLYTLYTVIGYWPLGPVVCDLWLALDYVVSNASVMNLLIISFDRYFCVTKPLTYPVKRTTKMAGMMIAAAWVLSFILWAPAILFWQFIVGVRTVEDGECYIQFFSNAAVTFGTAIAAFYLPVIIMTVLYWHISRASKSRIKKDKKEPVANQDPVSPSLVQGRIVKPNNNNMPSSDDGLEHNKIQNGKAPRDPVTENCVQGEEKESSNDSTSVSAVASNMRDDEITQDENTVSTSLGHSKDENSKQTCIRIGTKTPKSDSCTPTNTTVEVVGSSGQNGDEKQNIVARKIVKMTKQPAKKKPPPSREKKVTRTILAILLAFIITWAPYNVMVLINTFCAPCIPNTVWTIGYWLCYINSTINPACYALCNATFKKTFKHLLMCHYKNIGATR

[6] = target: T6, 5-HT1B (serotonin 1B receptor) (Rattus norvegicus, UniProt P28564); assay: SafetyScreen44: 5-HT1B; type: binding
T6 construct: purchased Eurofins Cerep SafetyScreen44
T6 sequence (P28564 whole entry): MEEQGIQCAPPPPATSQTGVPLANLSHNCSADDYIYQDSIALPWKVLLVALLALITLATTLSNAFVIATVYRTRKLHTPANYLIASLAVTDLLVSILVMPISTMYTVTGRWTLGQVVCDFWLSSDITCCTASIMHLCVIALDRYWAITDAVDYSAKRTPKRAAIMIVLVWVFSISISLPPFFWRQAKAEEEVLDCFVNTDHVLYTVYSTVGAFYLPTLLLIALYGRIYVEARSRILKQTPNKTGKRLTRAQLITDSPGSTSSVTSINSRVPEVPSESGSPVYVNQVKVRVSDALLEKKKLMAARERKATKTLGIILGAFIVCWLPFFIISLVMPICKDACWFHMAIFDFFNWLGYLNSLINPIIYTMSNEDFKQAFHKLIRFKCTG

healthy participants = assay: First-in-human study, safety and tolerability; type: in vivo
Excerpt: The purpose of the first-in-human, single-center, randomized, double-blind, placebo-controlled study was to determine the safety, tolerability, pharmacokinetics, and pharmacodynamics of JNJ-77242113 in healthy participants. […] AEs were coded using the Medical Dictionary for Regulatory Activities (Version 23.1).

T1 sequence (P29274 whole entry): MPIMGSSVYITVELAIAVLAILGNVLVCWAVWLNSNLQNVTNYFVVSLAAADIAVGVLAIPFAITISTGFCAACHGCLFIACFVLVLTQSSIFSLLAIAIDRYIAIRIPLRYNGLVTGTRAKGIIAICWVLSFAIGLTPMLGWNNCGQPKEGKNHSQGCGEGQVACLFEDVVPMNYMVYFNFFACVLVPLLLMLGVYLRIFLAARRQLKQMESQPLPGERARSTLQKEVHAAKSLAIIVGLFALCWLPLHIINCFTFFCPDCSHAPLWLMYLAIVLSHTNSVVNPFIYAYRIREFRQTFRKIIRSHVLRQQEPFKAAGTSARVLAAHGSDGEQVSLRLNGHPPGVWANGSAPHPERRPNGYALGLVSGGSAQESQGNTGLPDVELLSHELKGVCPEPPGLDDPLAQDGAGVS

CC(=O)NCCCC[C@@H]1NC(=O)[C@H](Cc2c[nH]c3c(C)cccc23)NC(=O)[C@H]([C@@H](C)O)NC(=O)[C@H](CC(N)=O)NC(=O)[C@@H](NC(C)=O)C(C)(C)SSC(C)(C)[C@@H](C(=O)N[C@@H](Cc2ccc(OCCN)cc2)C(=O)N[C@@H](Cc2ccc3ccccc3c2)C(=O)NC2(C(=O)N[C@@H](CCC(=O)O)C(=O)N[C@@H](CC(N)=O)C(=O)N[C@@H](Cc3cccnc3)C(=O)N(C)CC(N)=O)CCOCC2)NC1=O [JNJ-77242113, S^3,1,S^3,6-cyclo[N-acetyl-3-sulfanyl-L-valyl-L-asparaginyl-L-threonyl-7-methyl-L-tryptophyl-N^6-acetyl-L-lysyl-3-sulfanyl-L-valyl-O-(2-aminoethyl)-L-tyrosyl-3-(naphthalen-2-yl)-L-alanyl-4-aminooxan-4-carbonyl-L-α-glutamyl-L-asparaginyl-3-(pyridin-3-yl)-L-alanyl-N^2-methylglycinamide]] was tested, and the inhibition at 10 µM ([1]; 1st run, read-out: Percent inhibition of control ligand binding, A2A, 1st run) was -8.7%, the inhibition at 10 µM ([1]; 2nd run, read-out: Percent inhibition of control ligand binding, A2A, 2nd run) was -6.2% and the inhibition at 10 µM ([1]; mean of 2 runs, read-out: Percent inhibition of control ligand binding, A2A, Mean) was -7.5%. The inhibition at 10 µM ([2]; 1st run, read-out: Percent inhibition of control ligand binding, α1A, 1st run) was -4.6%, the inhibition at 10 µM ([2]; 2nd run, read-out: Percent inhibition of control ligand binding, α1A, 2nd run) was 5.5% and the inhibition at 10 µM ([2]; mean of 2 runs, read-out: Percent inhibition of control ligand binding, α1A, Mean) was 0.5%. The inhibition at 10 µM ([3]; 1st run, read-out: Percent inhibition of control ligand binding, CCK1 (CCKA), 1st run) was -29.4%, the inhibition at 10 µM ([3]; 2nd run, read-out: Percent inhibition of control ligand binding, CCK1 (CCKA), 2nd run) was -12.3% and the inhibition at 10 µM ([3]; mean of 2 runs, read-out: Percent inhibition of control ligand binding, CCK1 (CCKA), Mean) was -20.8%. For the same molecule, the inhibition at 10 µM ([4]; 1st run, read-out: Percent inhibition of control ligand binding, ETA, 1st run) was -31.3%, the inhibition at 10 µM ([4]; 2nd run, read-out: Percent inhibition of control ligand binding, ETA, 2nd run) was -12.9% and the inhibition at 10 µM ([4]; mean of 2 runs, read-out: Percent inhibition of control ligand binding, ETA, Mean) was -22.1%. The inhibition at 10 µM ([5]; 1st run, read-out: Percent inhibition of control ligand binding, M2, 1st run) was 0.3%, the inhibition at 10 µM ([5]; 2nd run, read-out: Percent inhibition of control ligand binding, M2, 2nd run) was 2% and the inhibition at 10 µM ([5]; mean of 2 runs, read-out: Percent inhibition of control ligand binding, M2, Mean) was 1.2%. It also gave an inhibition at 10 µM ([6]; 1st run, read-out: Percent inhibition of control ligand binding, 5-HT1B, 1st run) of 0%, an inhibition at 10 µM ([6]; 2nd run, read-out: Percent inhibition of control ligand binding, 5-HT1B, 2nd run) of -9.8% and an inhibition at 10 µM ([6]; mean of 2 runs, read-out: Percent inhibition of control ligand binding, 5-HT1B, Mean) of -4.9%. For the same molecule, the “Serious AEs or deaths related to JNJ-77242113” value (healthy participants; all cohorts) was “No serious AEs or deaths”, the “Severity of adverse events” value (healthy participants; all cohorts) was “mild or moderate” and the “Headache, participants, Part 2” value (healthy participants; healthy participants, multiple ascending dose) was 13.6%. For the same molecule, the “Frequency of treatment-related AEs, Part 2” value (healthy participants; healthy participants, multiple ascending dose, JNJ-77242113 groups) was 46%, the “Headache, participants, Part 1” value (healthy participants; healthy participants, single ascending dose) was 10.3% and the “Frequency of treatment-related AEs, Part 1” value (healthy participants; healthy participants, single ascending dose, JNJ-77242113 groups) was 31%.
